Results taken from patent US11278509B2, “Lithium salts of N-substituted glycine compounds and uses thereof” (SyneuRx International (Taiwan) Corp., priority 2017, dated 2022).

What was measured:
Assay type in all cases: in vivo, C57BL/6J male mice
[1] = test system: MK801-treated mice; experiment: Open field task, MK801-induced hyper-locomotion; details: for effect on MK-801 induced hyper-locomotion activity (travel distance, open field): 60 minutes
Method: (§1) All C57BL/6J male mice were purchased from Laboratory Animal Center of the College of Medicine of National Taiwan University. The mice were group housed (3-5 mice per cage) with food and water available ad libitum in polysulfone ventilated cages (Alternative Design, AR, USA) in the animal rooms of the Psychology Department of National Taiwan University. The colony was maintained on a 12/12-h light/dark cycle at the temperature of 22±2° C. and all behavioral studies were performed during dark cycle. All animals used in this study were adult mice (at least 2.5 months of age). All animal procedures were performed according to the protocols approved by Animal Care and Use Committee of National Taiwan University.
(§2) MK801, also known as dizocilpine, is an antagonist of NMDA receptor. Mice in Groups 2-6 were received an acute administration of MK-801 (a NMDA receptor antagonist, dissolved in normal saline, 0.1 or 0.2 mg/kg, i.p.) 20 min prior to behavioral tests. Mice in Groups 3-6 were received an oral gavage of N-methylglycine or lithium N-methylglycine, respectively (dissolved in PBS) 15 min prior to MK801 administration. The […] molarities of lithium N-methylglycine (300 mg/kg and 1000 mg/kg) were equal to those of N-methylglycine (278 mg/kg and 927 mg/kg), respectively.
(§3) Two cohorts ([…]) of mice were used in the present study, the cohort 1 (48 mice) were sequentially tested with open field (for MK801-induced hyper-locomotion) and pre-pulse inhibition (for sensor-motor gap function) tasks. The mice in cohort 2 (34 mice) were sequentially tested with Barnes maze (spatial learning and memory) task.
The open field task is a common measure of novel environment-induced exploratory behavior and general activity in both mice and rats. In the present study, the mice were placed in a Plexiglas cage (37.5 cm×21.5 cm×18 cm) under 50-65 lux light intensity, and their spontaneous locomotor activity was measured for 60 minutes using the EthoVision video tracking system (Noldus Information Technology, the Netherlands). The travel distance of each mouse was measured as an index of locomotion activity.

[2] = test system: MK801-treated mice; experiment: Pre-pulse inhibition task, sensorimotor gating
Method: as §1
MK801, also known as dizocilpine, is an antagonist of NMDA receptor. Mice in Groups 2-6 were received an acute administration of MK-801 (a NMDA receptor antagonist, dissolved in normal saline, 0.1 or 0.2 mg/kg, i.p.) 20 min prior to behavioral tests. […]
Pre-pulse inhibition was used as an index of sensorimotor gating function using SR-LAB startle apparatus (San Diego Instruments, San Diego, Calif., USA). […] The percentage of pre-pulse inhibition was evaluated by the following formula: % PPI=100×[(PA score)−(pp-P score)]/(PA score), where the PA score was the average of the PA value in the middle blocks.

[3] = test system: MK801-treated mice; experiment: Barnes maze task, spatial learning and memory; details: MK-801 0.2 mg/kg i.p.
Method: as §1, §2, §3
Mice were tested in a Barnes maze to examine spatial learning and memory as described previously (Barnes, 1979). This Barnes maze paradigm has been commonly examined in mouse models of CNS disorders, including, but not limited to, schizophrenia, depression, obsessive compulsive disorder, post-traumatic stress disorder, addiction disorders, Alzheimer's disease, frontotemporal dementia, Parkinson's disease, Duchenne muscular dystrophy, stroke, and Fragile X syndrome (see Cook et al., 2014; Gotz and Ittner, 2008; Hendriksen and Vles, 2008; Conklin et al., 2000; Song et al., 2006; Lai et al., 2014; Vasterling et al., 2002; Hyman, 2005; Schaar et al., 2010; Santos et al., 2014; Zhu et al., 2007; Deckersbach et al., 2000). The testing apparatus was an elevated (50 cm above the floor) circular Plexiglas plate (100 cm in diameter) with 20 holes (7 cm in diameter, 7 cm between holes) evenly spaced around the perimeter. Mice were trained on the plate to identify an escape box (25×8×6 cm) hidden behind the target hole, which was designated as an analog to the hidden platform in the Morris water maze task. The location of the target hole was selected for a given mouse but randomized across mice. Mice were initially placed in the center of the plate covered by an opaque cylinder, and the cylinder was removed 10 s after the beginning of the trial with both an aversive tone (440 Hz, 85 dB) and light (100 lux) switched on. […] The spatial memory was measured by the “probe test.” All the training trials and the probe tests were videotaped for 3 min, and then the escape latency for the training trials and the percentage of time in different quadrants (target, left, right, and opposite) during the probe test were analyzed. […]

[4] = MK-801 0.1 or 0.2 mg/kg i.p. 20 min prior to test

CNCC(=O)O.[Li] [lithium N-methylglycine]
dose dependence of effect on MK-801 induced hyper-locomotion ([1]; 300 mg/kg and 1000 mg/kg oral gavage + MK-801): Dose-dependent effect
effect on MK-801 induced hyper-locomotion activity (travel distance, open field) ([1]; 300 mg/kg oral gavage 15 min prior to MK801 i.p.): effective
effect on MK-801 induced hyper-locomotion activity (travel distance, open field) ([1]; 1000 mg/kg oral gavage 15 min prior to MK801 i.p.): effective
reducing hyperactivity induced by MK-801, compared with N-methylglycine ([1]; equal molarities: 300/1000 mg/kg vs 278/927 mg/kg): much more effective than N-methylglycine
effect on MK-801 induced deficit in pre-pulse inhibition (% PPI) ([2]; 300 mg/kg and 1000 mg/kg oral gavage + MK801, prepulse 78, 82, 90 dB, especially at 90 dB): alleviated
learning phase (escape latency in training trials) after MK-801 induced learning deficit ([3]; 1000 mg/kg oral gavage): enhances the learning
recovery of memory deficit induced by MK-801, compared with N-methylglycine [3]: much superior as compared with N-methylglycine
memory phase (time in target zone, probe test) after MK-801 induced memory deficit ([3]; high dose (1000 mg/kg) oral gavage): completely ameliorated the memory deficit

CNCC(=O)O [N-methylglycine, reference compound]
effect on MK-801 induced hyper-locomotion activity (travel distance, open field) ([1]; 927 mg/kg oral gavage 15 min prior to MK801 i.p.): marginally effective
memory phase (probe test) after MK-801 induced memory deficit ([3]; dose not stated): not effective

C[C@]12N[C@H](Cc3ccccc31)c1ccccc12 [MK-801, dizocilpine, reference compound]
locomotion in the open field test compared to the control group [1, 4]: induced the hyper-locomotion
sensorimotor gating function in the pre-pulse inhibition test compared to the control group [2, 4]: induced the sensorimotor gating function deficit
learning ability and memory in the Barnes maze task compared to the control group [3]: poor learning ability and memory deficit
